Measured values published in patent US20260041683A1, “Compounds with Anti-Acinetobacter Baumannii Activity” (University of Kentucky Research Foundation, priority 2022, published 2026).
Converted amounts (≈) assume the structure as drawn. Like-named read-outs stand apart in the source and are kept apart here.

Assays:
Ab ATCC 19606 (strain I) = assay: MIC determination (double dilution, Mueller-Hinton broth); type: cell-based, Acinetobacter baumannii; settings: for MIC: Acinetobacter baumannii, ATCC19606
[1] = test system: Ab ATCC BAA1605 (strain J, multidrug-resistant); assay: MIC determination; type: cell-based; settings: Acinetobacter baumannii
How it was run: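 Broth double-dilution MIC in Mueller-Hinton broth, 96-well plates, at least in duplicate. Inoculum: colonies grown overnight at 37 °C on MH plates, suspended to OD600 ~0.5 and diluted 1:1000 into serially doubly diluted compound.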

[2] = test system: Ab strain #284 (CDC and FDA AR Bank); assay: MIC determination; type: cell-based; settings: Acinetobacter baumannii; Ab AR Bank #284
Procedure: (§1) All bacterial strains listed above were stored at −80° C. All strains were streaked on Mueller-Hinton (MH) plates and allowed to grow at 37° C. overnight. Enough colonies were scraped from the plate and suspended in MH broth with vortexing to reach an attenuance at 600 nm (OD600) of ˜0.5. The resulting culture was diluted 1:1000 and added to the prepared serially doubly diluted compound solutions in 96-well plates. For M. smegmatis, a 1:100 dilution of the bacteria was done in MH. All MIC values were determined using 96-well plates with low evaporation seals at least in duplicate. For each row, one well was reserved for sterile control (which consisted of 200 μL of MH medium) and another well was reserved for growth control (which consisted of 100 μL of MH medium seeded with 100 μL of bacterial culture).
(§2) Then all 46 compounds were tested against a broad panel of all 41 Ab strains from the CDC and FDA Antibiotic Resistance (AR) Isolate Bank (Table 2; data shown for 2 representative compounds), which were all highly multidrug-resistant strains, including those resistant to colistin. […] The activity of the monohydrazides was not dependent on the extent (number of resistance mutations) or severity (antibiotic MIC) of resistance. All conclusions made from Table 1 remained valid for all compounds against these 41 additional Ab strains. […] This mechanism of action will be elucidated in the proposed studies.

[3] = test system: Ab strain #287 (CDC and FDA AR Bank); assay: MIC determination; type: cell-based; settings: Acinetobacter baumannii; Ab AR Bank #287
Procedure: as §1, §2

[4] = test system: Ab strain #273 (CDC and FDA AR Bank); assay: MIC determination; type: cell-based; settings: Acinetobacter baumannii; Ab AR Bank #273
Procedure: as §1, §2

[5] = test system: Ab strain #276 (CDC and FDA AR Bank); assay: MIC determination; type: cell-based; settings: Acinetobacter baumannii; Ab AR Bank #276
Procedure: as §1, §2

[6] = test system: Ab strain #306 (CDC and FDA AR Bank); assay: MIC determination; type: cell-based; settings: Acinetobacter baumannii; Ab AR Bank #306
Procedure: as §1, §2

[7] = test system: Ab strain #277 (CDC and FDA AR Bank); assay: MIC determination; type: cell-based; settings: Acinetobacter baumannii; Ab AR Bank #277
Procedure: as §1, §2

[8] = test system: Ab strain #291 (CDC and FDA AR Bank); assay: MIC determination; type: cell-based; settings: Acinetobacter baumannii; Ab AR Bank #291
Procedure: as §1, §2

[9] = test system: Ab strain #313 (CDC and FDA AR Bank); assay: MIC determination; type: cell-based; settings: Acinetobacter baumannii; Ab AR Bank #313
Procedure: as §1, §2

[10] = test system: Ab strain #290 (CDC and FDA AR Bank); assay: MIC determination; type: cell-based; settings: Acinetobacter baumannii; Ab AR Bank #290
Procedure: as §1, §2

[11] = test system: Ab strain #298 (CDC and FDA AR Bank); assay: MIC determination; type: cell-based; settings: Acinetobacter baumannii; Ab AR Bank #298
Procedure: as §1, §2

[12] = test system: Ab strain #308 (CDC and FDA AR Bank); assay: MIC determination; type: cell-based; settings: Acinetobacter baumannii; Ab AR Bank #308
Procedure: as §1, §2

[13] = test system: Ab strain #295 (CDC and FDA AR Bank); assay: MIC determination; type: cell-based; settings: Acinetobacter baumannii; Ab AR Bank #295
Procedure: as §1, §2

[14] = test system: Ab strain #279 (CDC and FDA AR Bank); assay: MIC determination; type: cell-based; settings: Acinetobacter baumannii; Ab AR Bank #279
Procedure: as §1, §2

[15] = test system: Ab strain #300 (CDC and FDA AR Bank); assay: MIC determination; type: cell-based; settings: Acinetobacter baumannii; Ab AR Bank #300
Procedure: as §1, §2

[16] = test system: all 43 strains of A. baumannii (41 CDC strains and 2 ATCC strains); assay: MIC value statistics for all A. baumannii strains; type: cell-based, Acinetobacter baumannii; settings: of 43 A. baumannii strains
How it was run: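 Broth microdilution in MH broth against CDC AR Isolate Bank and ATCC strains. Inoculum from overnight MH plates (37 °C), suspended to OD600 ~0.5, then diluted 1:1000 into serial twofold compound dilutions. Sterile and growth controls included per row.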

[17] = Table 1, control strain, read-out: MIC Ab ATCC 19606
[18] = Table 1, multidrug-resistant strain, read-out: MIC Ab ATCC BAA 1605

In the case of `O=C(NNc1cccc(F)c1)c1cnccn1` [Compound 9a], the MIC (Ab ATCC 19606 (strain I); [17]) is reported as 0.5 mg/L (≈ 2.15 µM), the MIC [1, 18] is reported as 0.5 mg/L (≈ 2.15 µM) and the MIC [2] is reported as 0.5 mg/L (≈ 2.15 µM). For the same compound, the MIC [3] was 0.5 mg/L (≈ 2.15 µM), the MIC [4] was 1 mg/L (≈ 4.31 µM) and the MIC [5] was 0.5 mg/L (≈ 2.15 µM). The MIC [6] was 0.5 mg/L (≈ 2.15 µM), the MIC [7] was 1 mg/L (≈ 4.31 µM) and the MIC [8] was 0.25 mg/L (≈ 1.08 µM). The MIC [9] was 0.25 mg/L (≈ 1.08 µM), the MIC [10] was 1 mg/L (≈ 4.31 µM) and the MIC [11] was 0.5 mg/L (≈ 2.15 µM). For the same compound, the MIC [12] was 0.25 mg/L (≈ 1.08 µM), the MIC [13] was ≤ 0.13 mg/L and the MIC [14] was 1 mg/L (≈ 4.31 µM). For the same compound, the MIC [15] was 0.25 mg/L (≈ 1.08 µM), the “number of compound/strain combinations with MIC value 0.25 μg/mL” value [16] was 11 and the “number of compound/strain combinations with MIC value 0.5 μg/mL” value [16] was 18. For the same compound, the “number of compound/strain combinations with MIC value 1 μg/mL” value [16] was 10 and the “number of compound/strain combinations with MIC value ≤0.125 μg/mL” value [16] was 4.
`O=C(NNc1ccc(Cl)cc1)c1ccc(F)cn1` [Compound 3e] gave an MIC (Ab ATCC 19606 (strain I); [17]) of 1 mg/L (≈ 3.76 µM), an MIC (Ab ATCC 19606 (strain I); Table 5, Mueller-Hinton medium, I = A. baumannii ATCC 19606, read-out: MIC strain I) of 1 mg/L (≈ 3.76 µM) and an MIC under conditions used to generate biofilm (Ab ATCC 19606 (strain I); trypticase soy broth (TSB) medium) of 0.5 mg/L (≈ 1.88 µM). For the same compound, the MIC [1, 18] was 0.0625 mg/L (≈ 0.235 µM), the MIC ([1]; Table 5, Mueller-Hinton medium, J = A. baumannii BAA1605, read-out: MIC strain J) was ≤ 0.125 mg/L and the MIC [2] was 0.25 mg/L (≈ 0.941 µM). It also gave an MIC [3] of 0.13 mg/L (≈ 0.489 µM), an MIC [4] of 0.5 mg/L (≈ 1.88 µM) and an MIC [5] of 0.03 mg/L (≈ 0.113 µM). The MIC [6] was 0.13 mg/L (≈ 0.489 µM), the MIC [7] was 0.06 mg/L (≈ 0.226 µM) and the MIC [8] was 0.06 mg/L (≈ 0.226 µM). For the same compound, the MIC [9] was 0.25 mg/L (≈ 0.941 µM), the MIC [10] was 0.125 mg/L (≈ 0.47 µM) and the MIC [11] was 0.25 mg/L (≈ 0.941 µM). The MIC [12] was 0.13 mg/L (≈ 0.489 µM), the MIC [13] was 0.06 mg/L (≈ 0.226 µM) and the MIC [14] was 0.25 mg/L (≈ 0.941 µM). For the same compound, the MIC [15] was 0.25 mg/L (≈ 0.941 µM), the “number of compound/strain combinations with MIC value 0.25 μg/mL” value [16] was 16 and the “number of compound/strain combinations with MIC value 0.5 μg/mL” value [16] was 10. The “number of compound/strain combinations with MIC value 1 μg/mL” value [16] was 1 and the “number of compound/strain combinations with MIC value ≤0.125 μg/mL” value [16] was 16.
